Measured values as given in patent US10702505B2, “Rifaximin” (CIPLA Limited, priority 2006, dated 2020).
Read-outs that look alike come from different tables or passages of the source.

What was measured:
Format in all cases: physicochemical
[1] = intrinsic dissolution of amorphous rifaximin against the α Form; settings: 37±0.5° C., 100 rpm
Method: Temperature: 37±0.5° C. Rotation speed: 100 rpm Particle size: Amorphous rifaximin—11 microns • α Form of rifaximin—13 microns

bulk density = experiment: bulk density
tapped density = experiment: tapped density
[2] = 15 minutes, 1000 ml 0.1M sodium dihydrogen phosphate monohydrate + 4.5 g sodium lauryl sulphate

intrinsic dissolution profile compared with α Form ([1]; 0.1M sodium dihydrogen phosphate monohydrate + sodium lauryl sulphate) | % Release [1, 2] [%] | % Release ([1]; 30 minutes, same medium) [%] | % Release ([1]; 45 minutes, same medium) [%] | % Release ([1]; 60 minutes, same medium) [%] | % Release ([1]; 120 minutes, same medium) [%] | % Release ([1]; 180 minutes, same medium) [%] | % Release ([1]; 240 minutes, same medium) [%] | % Release ([1]; 360 minutes, same medium) [%] | % Release ([1]; 480 minutes, same medium) [%] | % Release ([1]; 600 minutes, same medium) [%] | % Release ([1]; 720 minutes, same medium) [%] | % Release ([1]; 960 minutes, same medium) [%] | % Release ([1]; 1200 minutes, same medium) [%] | % Release ([1]; 1400 minutes, same medium) [%] | bulk density (bulk density) [g/mL] | tapped density (tapped density) [g/mL] | bulk density (bulk density; listed as α Form rifaximin) [g/mL] | tapped density (tapped density; listed as α Form rifaximin) [g/mL] | SMILES
better dissolution profile than α Form | 1.1 | 1.9 | 2.9 | 3.7 | 8.1 | 12.6 | 16.6 | 24.7 | 32.0 | 39.5 | 46.4 | 60.4 | 72.9 | 83.0 | 0.3 to 0.4 | 0.4 to 0.5 |  |  | CO[C@H]1/C=C/O[C@@]2(C)Oc3c(C)c(O)c4c(O)c(c5c(nc6cc(C)ccn65)c4c3C2=O)NC(=O)/C(C)=C\C=C\[C@H](C)[C@H](O)[C@@H](C)[C@@H](O)[C@@H](C)[C@H](OC(C)=O)[C@@H]1C [Amorphous Rifaximin, (2S,16Z,18E,20S,21S,22R,23R,24R,25S,26 S,27S,28E)-5,6,21,23,25-pentahydroxy-27-methoxy-2,4,11,16,20,22,24,26-octamethyl-2,7-(epoxypentadeca-[1,11,13]trienimino)benzofuro[4,5-e]pyrido[1,2-a]-benzimida-zole-1,15(2H)-dione,25-acetate]
 | 0.8 | 1.8 | 3.0 | 4.4 | 11.0 | 18.0 | 24.6 | 38.7 | 47.5 | 52.7 | 56.4 | 62.9 | 67.8 | 72.7 |  |  | 0.2 to 0.3 | 0.3 to 0.4 | CO[C@H]1/C=C/O[C@@]2(C)Oc3c(C)c(O)c4c(O)c(c5c(nc6cc(C)ccn65)c4c3C2=O)NC(=O)/C(C)=C\C=C\[C@H](C)[C@H](O)[C@@H](C)[C@@H](O)[C@@H](C)[C@H](OC(C)=O)[C@@H]1C [α Form of Rifaximin, (2S,16Z,18E,20S,21S,22R,23R,24R,25S,26 S,27S,28E)-5,6,21,23,25-pentahydroxy-27-methoxy-2,4,11,16,20,22,24,26-octamethyl-2,7-(epoxypentadeca-[1,11,13]trienimino)benzofuro[4,5-e]pyrido[1,2-a]-benzimida-zole-1,15(2H)-dione,25-acetate, reference compound]
